Consider 4 compounds from US9174931B2, “Compositions for the treatment of diabetes and pre-diabetes” (CELLIX BIO PRIVATE LIMITED, priority 2013, dated 2015).

In brackets after ≈: the same amount, converted by molar mass.

The solubility is the dissolved amount per volume that the medium holds. Lower therefore signals little dissolved substance.

The nature of this series: Water solubility of test compounds compared with EPA. The format is physicochemical. The conditions noted are these: thermodynamic from solid; distilled water added in small portions until clear solution. As to the method:
Measurement of the water solubility of the test compound was accomplished by using methods well known to those skilled in the art. Specifically, to a weighed amount of the test compounds of Example-1, Example-2, Example-3 and EPA were taken in separate vials; distilled water was added in small portions until a clear solution was obtained. The water solubility is calculated by dividing the weight of salt, in mg, by the volume of the solution, in mL. The water solubility of the compounds of example-1, example-2, example-3 compared to EPA alone were as follows: […]
Turning to `CC/C=C\C/C=C\C/C=C\C/C=C\C/C=C\CCCC(=O)O` [EPA, Eicosapentaenoic Acid, reference compound], the solubility is under 0.3 mg/mL.

As for `CC/C=C\C/C=C\C/C=C\C/C=C\C/C=C\CCCC(=O)OCC(C)(C)[C@@H](O)C(=O)NCCC(=O)O` [Example-1, amino(3,3-dimethylguanidino)methaniminium 3-((R)-2-hydroxy-4-((5Z,8Z,11Z,14Z,17Z)-icosa-5,8,11,14,17-pentaenoyloxy)-3,3-dimethylbutanamido) propanoate], the solubility was determined as 60 mg/mL (≈ 119 mM).

With `CC/C=C\C/C=C\C/C=C\C/C=C\C/C=C\CCCC(=O)OCC(C)(C)[C@@H](OC(=O)c1cccnc1)C(=O)NCCC(=O)O` [Example-2, amino(3,3-dimethylguanidino)methaniminium 3-((R)-4-((5Z,8Z,11Z,14Z,17Z)-icosa-5,8,11,14,17-pentaenoyloxy)-3,3-dimethyl-2-(nicotinoyloxy)butanamido)propanoate], the concentration in solution (solubility) came to 103 mg/mL (≈ 169 mM).

For the compound `CC/C=C\C/C=C\C/C=C\C/C=C\C/C=C\CCCC(=O)OCC(C)(C)[C@@H](OC(=O)c1ccccc1OC(=O)c1ccccc1OC(C)=O)C(=O)NCCC(=O)O` [Example-3, amino(3,3-dimethylguanidino)methaniminium3-((R)-2-((2-((2-acetoxybenzoyl)oxy)benzoyl)oxy)-4-((5Z,8Z,11Z,14Z,17Z)-icosa-5,8,11,14,17-pentaenoyloxy)-3,3-dimethylbutanamido)propanoate], the concentration in solution (solubility) was 98 mg/mL (≈ 125 mM).
